Results published in PubChem BioAssay (NCI).
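How tested: cells in 96-well plates exposed to compound for 48 hours at five concentrations. TGI: concentration producing complete growth inhibition.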

How the values were obtained:
Assay in all cases: inhibition of tumour cell growth, NCI panel, 48 h
TK-10 renal = test system: TK-10 renal
NCI-H23 lung = test system: NCI-H23 lung
HOP-62 NSCLC = test system: HOP-62 NSCLC
CCRF-CEM leukemia = test system: CCRF-CEM leukemia
K-562 leukemia = test system: K-562 leukemia
NCI-H460 lung = test system: NCI-H460 lung
COLO 205 colon = test system: COLO 205 colon
OVCAR-4 ovarian = test system: OVCAR-4 ovarian
A498 renal = test system: A498 renal
UO-31 renal = test system: UO-31 renal
NCI/ADR-RES ovarian = test system: NCI/ADR-RES ovarian
SF-268 CNS = test system: SF-268 CNS
SF-539 CNS = test system: SF-539 CNS
NCI-H226 lung = test system: NCI-H226 lung
M14 melanoma = test system: M14 melanoma
SK-MEL-28 melanoma = test system: SK-MEL-28 melanoma
SK-MEL-2 melanoma = test system: SK-MEL-2 melanoma
SNB-19 CNS = test system: SNB-19 CNS
T-47D breast = test system: T-47D breast
SR leukemia = test system: SR leukemia

Row | Compound | TGI (TK-10 renal) [µM] | TGI (NCI-H23 lung) [µM] | TGI (HOP-62 NSCLC) [µM] | TGI (CCRF-CEM leukemia) [µM] | TGI (K-562 leukemia) [µM] | TGI (NCI-H460 lung) [µM] | TGI (COLO 205 colon) [µM] | TGI (OVCAR-4 ovarian) [µM] | TGI (A498 renal) [µM] | TGI (UO-31 renal) [µM] | TGI (NCI/ADR-RES ovarian) [µM] | TGI (SF-268 CNS) [µM] | TGI (SF-539 CNS) [µM] | TGI (NCI-H226 lung) [µM] | TGI (M14 melanoma) [µM] | TGI (SK-MEL-28 melanoma) [µM] | TGI (SK-MEL-2 melanoma) [µM] | TGI (SNB-19 CNS) [µM] | TGI (T-47D breast) [µM] | TGI (SR leukemia) [µM]
1 | OC(CNc1ccccn1)c1ccccc1 (configuration not stated) | > 100 | > 100 | > 100 | > 100 | > 100 | > 100 | > 100 | > 100 | > 100 | > 100 | > 100 | > 100 | > 100 | > 100 | > 100 | > 100 | > 100 | > 100 | > 100 | –
2 | COc1ccc(Cn2c(=O)c(OC)c(C)c3cc4ccccc4cc32)cc1 | 70.8 | 77.5 | > 100 | > 100 | > 100 | 36.8 | 40.2 | > 100 | – | > 100 | 87.9 | > 100 | > 100 | > 100 | > 100 | > 100 | 52.5 | > 100 | > 100 | 57.5
3 | Cc1c(N2C(=O)C(Cl)C2/C=C/c2ccccc2)c(=O)n(-c2ccccc2)n1C (configuration not stated) | 37.4 | 32.8 | 60.9 | 48.1 | 51.1 | > 100 | 28 | 84.6 | – | 92.4 | > 100 | > 100 | 62.3 | 61.6 | 36 | – | 40.6 | – | > 100 | 43.9
4 | CN(/N=C/c1ccc(C(=O)O)cc1)C1=NCCCCN1 | – | > 100 | > 100 | > 100 | > 100 | > 100 | > 100 | > 100 | > 100 | > 100 | > 100 | > 100 | > 100 | > 100 | > 100 | > 100 | – | > 100 | > 100 | > 100
5 | CC(C)(C)C1CCC(=O)/C(=C/CC2CC(=O)N(c3ccccc3)C(=O)C2)C1 (configuration not stated) | 31.8 | 34.6 | 72.8 | – | 48.3 | 30.2 | 41.2 | 77.4 | 61.2 | 30.2 | 37.7 | 47.1 | – | 32 | – | 47.4 | 42.9 | 51.6 | 48.6 | 41.5
6 | Cc1nc2ccc(Br)cc2c(=O)n1-c1nnc(C(C)(C)C)s1 | > 10 | > 10 | > 10 | > 10 | > 10 | > 10 | > 10 | > 10 | – | 4.45 | > 10 | > 10 | > 10 | > 10 | > 10 | > 10 | > 10 | > 10 | > 10 | > 10
7 | O=C1/C(=C\c2ccc([N+](=O)[O-])cc2)N(S(=O)(=O)c2ccccc2)c2ncccc21 | 31.9 | 42.1 | 46.2 | > 100 | > 100 | 38.3 | 56.8 | – | – | 38.2 | 63.3 | 70.7 | 55.5 | 83.5 | 41.2 | 41.8 | – | 65 | 35 | 20.8
8 | O=c1oc2ccccc2c(Nc2ccc3c(c2)Sc2ccccc2O3)c1[N+](=O)[O-] | 53.9 | 86.7 | > 100 | 81 | 57.9 | 55.3 | 32.1 | > 100 | – | > 100 | > 100 | > 100 | 85 | 76.5 | > 100 | 73.3 | 54.7 | > 100 | 69.7 | 57.3
9 | CC(=O)SCCC(NC(=S)Nc1ccccc1)P(=O)(Oc1ccccc1)Oc1ccccc1 (configuration not stated) | > 100 | > 100 | > 100 | > 100 | > 100 | > 100 | > 100 | > 100 | – | > 100 | > 100 | > 100 | > 100 | > 100 | > 100 | > 100 | – | > 100 | > 100 | > 100
10 | Cc1cc(C)c2c(=O)cc(-c3cccc4ccccc34)[nH]c2n1 | > 87.1 | > 61.6 | > 100 | > 100 | > 100 | > 100 | 2.03 | > 100 | 4.72 | > 100 | > 25.9 | > 48 | > 19.9 | 79.1 | > 51.4 | > 100 | – | > 51.8 | > 100 | > 100
